The text below walks through data of US20030072710A1, “Individualization of therapy with antidepressants” (McGill University, priority 2001, published 2003).

Like-named read-outs stand apart in the source and are kept apart here. Marks after values point to notes of the source that are not given here.

One data set deals with AAMU-Ab. Kind of data set: Competitive antigen ELISA, cross-reactivity of AAMU-Ab. It counts as binding, rabbit. To be noted: for % Cross-Reaction AAMU-Ab: competitive antigen ELISA, 0 = absence of inhibition or inhibition no higher than 40% at highest concentration tested (5×10^−3 M). The method, then: (§1) Buffers and water without additives are filtered through millipore filters and kept for 1 week. BSA, antibodies, Tween™ 20 and horse radish peroxidase conjugates are added to these buffers and water just prior to use. Urine samples are usually collected 4 hours after drinking a cup of coffee (instant or brewed with approximately 100 mg of caffeine per cup) and stored at −80° C. The urine samples are diluted 10 times with sodium phosphate buffer (620 mosm, pH 7.50) and are subsequently diluted with water to give concentrations of AAMU and 1X no higher than 3×10^−6 M in the ELISA. All the pipettings are done with an eight-channel pipette, except those of the antibody and sample solutions. Starting with the last well, 100 μL of a carbonate buffer (100 mM, pH 9.6) containing 2.5 μg mL-1 antibodies are added to each well. After 90 min. at room temperature, the wells are washed three times with […] of TPB: isotonic sodium phosphate buffer (310 mosm, pH 7.50) containing 0.05% Tween™ 20.
(§2) After the initial wash, unoccupied sites are blocked by incubation for 90 min. at room temperature with 100 μL TBP containing 3% BSA. The wells are washed four times with 100 μL TPB. […] The microplate is gently shaken with an orbital shaker at room temperature for 3-4 hours. The wells are washed three times with 100 μL TPB containing 1% BSA and three times with water containing 0.05% Tween™ 20. To the washed plate is added 150 μL of a substrate buffer composed of citric acid (25 mM) and sodium phosphate dibasic buffer (50 mM, pH 5.0) containing 0.06% hydrogen peroxide and 0.04% o-phenylenediamine hydrochloride.
(§3) Buffers and water without additives were filtered through millipore filters and kept for 1 week. BSA, antibodies, Tween™ 20 and horse radish peroxidase conjugates were added to these buffers and water just prior to use. Urine samples were usually collected 4 hours after drinking a cup of coffee (instant or brewed with approximately 100 mg of caffeine per cup) and stored at −80° C. They were diluted 10 times with sodium phosphate buffer (620 mosm, pH 7.50) and were subsequently diluted with water to give concentrations of AAMU and 1X no higher than 3×10^−6 M in the ELISA. All the pipettings were done with an eight-channel pipette, except those of the antibody and sample solutions. Starting with the last well, 100 μL of a carbonate buffer (100 mM, pH 9.6) containing 2.5 μg mL-1 antibodies was pipetted. After 90 min. at room temperature, the wells were washed three times with 100 μL of TPB: isotonic sodium phosphate buffer (310 mosm, pH 7.50) containing 0.05% Tween™ 20.
(§4) After the initial wash, unoccupied sites were blocked by incubation for 90 min. at room temperature with 100 μL TBP containing 3% BSA. The wells were washed four times with 100 μL TPB. […] The microplate was gently shaken with an orbital shaker at room temperature for 3-4 hours. The wells were washed three times with 100 μL with TPB containing 1% BSA and three times with water containing 0.05% Tween™ 20. To the washed plate was added 150 μL of a substrate buffer composed of citric acid (25 mM) and sodium phosphate dibasic buffer (50 mM, pH 5.0) containing 0.06% hydrogen peroxide and 0.04% o-phenylenediamine hydrochloride. After 20 min. at room temperature with shaking, the reaction was stopped with 50 μL of 2.5 N HCl.
(§5) The cross reactivities of AAMU-Ab and 1X-Ab were tested using a wide variety of caffeine metabolites and structural analogs (Table 5 below).
A general note: In an ELISA, binding on a coated surface is turned into a signal by an enzyme label.

A further data set deals with 1X-Ab. Kind of data set: Competitive antigen ELISA, cross-reactivity of 1X-Ab. It counts as binding, rabbit. To be noted: for % Cross-Reaction 1X-Ab: competitive antigen ELISA, 0 = absence of inhibition or inhibition no higher than 40% at highest concentration tested (5×10^−3 M). The method, then:
as §1, §2, §3, §4, §5

The conditions of data set [1]: cited from earlier work.

`Cn1c(=O)c2c(ncn2C)n(C)c1=O` [1,3,7-Trimethyl Xanthine (Caffeine), 1,3,7-Trimethyl Xanthine]: the “% Cross-Reaction AAMU-Ab” value in the data set with AAMU-Ab turned out to be 0%. In addition, the “% Cross-Reaction 1X-Ab” value in the data set on 1X-Ab came out at 0%.

Regarding `Cn1c(=O)c2[nH]cnc2n(C)c1=O` [1,3-Dimethyl Xanthine (Theophylline), 1,3-Dimethyl Xanthine], the “% Cross-Reaction AAMU-Ab” value with AAMU-Ab was determined as 0%. Also, the “% Cross-Reaction 1X-Ab” value with 1X-Ab is 0.2%.

As to `Cn1c(=O)[nH]c2ncn(C)c2c1=O` [1,7-Dimethyl Xanthine (Paraxanthine), 1,7-Dimethyl Xanthine], the “% Cross-Reaction AAMU-Ab” value in the data set with AAMU-Ab worked out at 0%. In addition, the “% Cross-Reaction 1X-Ab” value in the data set on 1X-Ab came to 0.5%.

As for `Cn1c(=O)[nH]c2[nH]c(=O)n(C)c2c1=O` [1,7-Dimethyluric acid], the “% Cross-Reaction AAMU-Ab” value in the data set on AAMU-Ab amounted to 0%. For the same molecule, the “% Cross-Reaction 1X-Ab” value with 1X-Ab worked out at 0%.

For `Cn1c(=O)[nH]c2nc[nH]c2c1=O` [1-Methyl Xanthine (1X), 1-Methyl Xanthine], the “% Cross-Reaction AAMU-Ab” value in the data set with AAMU-Ab came to 0%. In addition, the “% Cross-Reaction 1X-Ab” value with 1X-Ab is given as 100%. Also, the IC50 in the data set on 1X-Ab (read-out: concentration required for 50% inhibition in the competitive antigen ELISA, 1X-Ab) worked out at 10 µM.

Consider `Cn1c(=O)[nH]c2[nH]c(=O)[nH]c2c1=O` [1-Methyluric acid], for which, in the data set with AAMU-Ab, the “% Cross-Reaction AAMU-Ab” value was 0%. Also, the “% Cross-Reaction 1X-Ab” value in the data set on 1X-Ab was determined as 11%.

As to `Cn1cnc2c1c(=O)[nH]c(=O)n2C` [3,7-Dimethyl Xanthine (Theobromine), 3,7-Dimethyl Xanthine], the “% Cross-Reaction AAMU-Ab” value with AAMU-Ab is on record as 0%. For the same molecule, the “% Cross-Reaction 1X-Ab” value in the data set with 1X-Ab is reported as 0%.

For the molecule `Cn1c(=O)[nH]c(=O)c2[nH]cnc21` [3-Methyl Xanthine], in the data set on AAMU-Ab, the “% Cross-Reaction AAMU-Ab” value stood at 0%. Besides, the “% Cross-Reaction 1X-Ab” value in the data set on 1X-Ab came to 0%.

As to `CC(=O)Nc1c(N)n(C)c(=O)n(C)c1=O` [5-Acetamino-6-amino-1,3-dimethyluracil], in the data set with AAMU-Ab, the “% Cross-Reaction AAMU-Ab” value is recorded as 0%. Also, the “% Cross-Reaction 1X-Ab” value in the data set on 1X-Ab stood at 0%.

For the molecule `CC(=O)Nc1c(N)n(C)c(=O)[nH]c1=O` [5-Acetamino-6-amino-1-methyluracil], the “% Cross-Reaction AAMU-Ab” value in the data set with AAMU-Ab turned out to be 100%. The IC50 with AAMU-Ab (read-out: concentration required for 50% inhibition in the competitive antigen ELISA, AAMU-Ab) was determined as 1.5 µM. Also, the “% Cross-Reaction 1X-Ab” value in the data set on 1X-Ab came out at 0%.

With `CC(=O)Nc1c(N)[nH]c(=O)[nH]c1=O` [5-Acetamino-6-amino-uracil], the “% Cross-Reaction AAMU-Ab” value in the data set with AAMU-Ab amounted to 0.6%. Also, the “% Cross-Reaction 1X-Ab” value in the data set on 1X-Ab stood at 0%.

Take `Cn1cnc2[nH]c(=O)[nH]c(=O)c21` [7-Methyl Xanthine]: in the data set on AAMU-Ab, the “% Cross-Reaction AAMU-Ab” value stood at 0%. The “% Cross-Reaction 1X-Ab” value in the data set with 1X-Ab came to 0%.

As for `Cc1nc2[nH]c(=O)[nH]c(=O)c2[nH]1` [8-Methyl Xanthine], the “% Cross-Reaction AAMU-Ab” value in the data set on AAMU-Ab was 0%. The “% Cross-Reaction 1X-Ab” value in the data set with 1X-Ab stood at 0%.

In the case of `Nc1nc2nc[nH]c2c(=O)[nH]1` [Guanine], in the data set on AAMU-Ab, the “% Cross-Reaction AAMU-Ab” value is given as 0%. Besides, in the data set on 1X-Ab, the “% Cross-Reaction 1X-Ab” value worked out at 0%.

For `O=c1[nH]cnc2nc[nH]c12` [Hypoxanthine], the “% Cross-Reaction AAMU-Ab” value in the data set with AAMU-Ab is 0%. Further, the “% Cross-Reaction 1X-Ab” value in the data set with 1X-Ab came to 0%.

Turning to `O=c1cc[nH]c(=O)[nH]1` [Uracil], in the data set with AAMU-Ab, the “% Cross-Reaction AAMU-Ab” value is on record as 0%. Further, in the data set on 1X-Ab, the “% Cross-Reaction 1X-Ab” value is on record as 0%.

For the molecule `O=c1[nH]c(=O)c2[nH]c(=O)[nH]c2[nH]1` [Uric acid], the “% Cross-Reaction AAMU-Ab” value in the data set with AAMU-Ab was 0%. In addition, the “% Cross-Reaction 1X-Ab” value in the data set with 1X-Ab was 0%.

For `O=c1[nH]c(=O)c2[nH]cnc2[nH]1` [Xanthine], in the data set on AAMU-Ab, the “% Cross-Reaction AAMU-Ab” value was 0^a %. Moreover, the “% Cross-Reaction 1X-Ab” value in the data set with 1X-Ab was 0%.

As to `Nc1ccc(S(=O)(=O)c2ccc(N)cc2)cc1` [dapsone], the “adverse reactions to dapsone” value in data set [1] (fast acetylators) is listed as 17%; in data set [1] (slow acetylators), 46%.
